The values below are quoted from earlier work in patent US9968629B2, “Product and method for supporting uridine homeostasis” (N.V. Nutricia, priority 2012, dated 2018).

Structures are written as SMILES.

Turning to `O=c1ccn([C@@H]2O[C@H](CO)[C@@H](O)[C@H]2O)c(=O)[nH]1` [uridine], the “time after which all administered uridine has been used or is catabolised” value (FIG. 3 in WO 2007/089703, plasma uridine levels) is 6 to 8 h. Further, the toxic side effects entry (high doses of uridine) is “phlebitis, pyrogenic reactions and diarrhea”. For the same compound, the “half time in the plasma” value (plasma) was 3 to 4 h.
